# Tests used:
# [1] = system: 5-HT2-receptor; conditions: background statement, no value given; cited from earlier work
# [2] = system: pre-menopausal female patients with HSDD; test: twelve-week randomized, double-blind, placebo-controlled proof of concept trial in pre-menopausal female patients with HSDD (IVR-FSBQ); type: in vivo, human
# Experimental: This trial was designed as a prospective, multi-center, twelve-week, randomized, double-blind, placebo-controlled, proof of concept, parallel-group trial comparing the effects of flibanserin (maximum total daily dose: 100 mg b.i.d.) to placebo in pre-menopausal female patients with HSDD. Seventy-five patients were to be randomized to each treatment group.
# This proof of concept trial was designed to assess whether twelve weeks of flibanserin treatment produced a clinically meaningful therapeutic response in healthy female patients with HSDD (as determined by DSM-IV criteria). Efficacy for flibanserin was assessed versus a parallel placebo group.
# After a Screening period (no treatment) of approximately twenty-eight days, eligible patients were randomized into the twelve week, double-blind portion of the trial during which they were to take study medication in the morning and in the evening about 12 hours apart.
# Patients must have been pre-menopausal females who were 18 to 45 years of age with the primary diagnosis of HSDD, acquired type, according to DSM-IV criteria. The current episode must have been at least 24 weeks in duration by the Baseline Visit.
# The baseline severity criterion was from the Arizona Sexual Experiences Scale, requiring a score of 5 or 6 (very weak or no sex drive) on the sex drive item. […]
# [3] = molecular target: T1, 5-HT-1A receptor (Homo sapiens, UniProt P08908); conditions: background statement, no value given; cited from earlier work
# T1 sequence (P08908 1-422): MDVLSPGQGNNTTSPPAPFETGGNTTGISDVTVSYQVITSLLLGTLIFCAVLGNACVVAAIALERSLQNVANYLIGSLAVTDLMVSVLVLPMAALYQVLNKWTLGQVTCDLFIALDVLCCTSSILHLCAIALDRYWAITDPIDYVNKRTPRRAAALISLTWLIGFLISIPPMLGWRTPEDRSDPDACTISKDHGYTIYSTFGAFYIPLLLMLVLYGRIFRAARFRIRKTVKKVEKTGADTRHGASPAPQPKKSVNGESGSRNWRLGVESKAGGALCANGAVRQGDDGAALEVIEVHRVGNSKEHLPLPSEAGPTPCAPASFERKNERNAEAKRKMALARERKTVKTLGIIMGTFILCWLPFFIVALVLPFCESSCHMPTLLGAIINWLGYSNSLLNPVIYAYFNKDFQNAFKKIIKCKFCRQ
smiles,measurement,setting,value
"O=c1[nH]c2ccccc2n1CCN1CCN(c2cccc(C(F)(F)F)c2)CC1 [flibanserin, 1-[2-(4-(3-trifluoromethyl-phenyl)piperazin-1-yl)ethyl]-2,3-dihydro-1H-benzimidazol-2-one]",affinity for the 5-HT2-receptor,[1],shows affinity
same,"IVR-FSBQ Frequency of Sexual Thoughts, monthly mean change from baseline vs placebo","[2]; pre-menopausal women with HSDD, 50 mg b.i.d. (up to 100 mg b.i.d. from Week 8), 12 weeks, FAS, LOCF, FIG. 1",clearly demonstrates the efficacy
same,sexual desire enhancing properties,[2]; studies of pre-menopausal female patients suffering from sexual dysfunction,displays sexual desire enhancing properties
same,affinity for the 5-HT-1A receptor,[3],shows affinity
